{"source": "paper PMC8557901", "about": "(Microbiology Spectrum, 2021)", "key": {"Microsomal stability": {"assay": "Microsomal stability", "assay_type": "in vitro ADME", "conditions": "pH 7.4; female mouse microsomes (CD-1), 37°C; read-out: half-life (t1/2)", "protocol": "The tested product and propranolol, used as a reference, were incubated in duplicate (reaction mixture volume of 0.5 ml) with female mouse microsomes (CD-1, 20 mg/ml; BD Gentest) at 37°C in a 50 mM phosphate buffer, pH 7.4, in the presence of MgCl2 (5 mM), NADP (1 mM), glucose-6-phosphate dehydrogenase (G6PD) (0.4 U/ml), and glucose-6-phosphate (5 mM). For the estimation of the intrinsic clearance, 50-μl aliquots were collected at 0, 5, 10, 20, 30, and 40 min and the reaction was stopped with 4 volumes of acetonitrile (ACN) containing the internal standard. After centrifugation at 10,000 × g for 10 min at 4°C, the supernatants were conserved at 4°C for immediate analysis or placed at −80°C in case of postponement of the analysis. Controls (time zero and final time point) in triplicate were prepared by incubation of the internal standard with microsomes denatured by acetonitrile. […] The chromatographic analysis, with a total duration of 4 min, was made with the following gradient: 0 < t < 0.2 min, 2% mobile phase B; 0.2 < t < 2 min, linear increase to 98% mobile phase B; 2 < t < 2.5 min, 98% mobile phase B; 2.5 < t < 2.6 min, linear decrease to 2% mobile phase B; 2.6 < t < 4 min, 2% mobile phase B. The quantification of each compound was obtained by converting the average of the ratios of the analyte/internal standard surfaces to the percentage of consumed product. […]"}, "[1]": {"test_system": "P. falciparum strain K1 in RBC", "assay": "In vitro chemosensitivity assay, blood stage P. falciparum K1 (SYBR green I)", "assay_type": "cell-based", "conditions": "Plasmodium falciparum, K1; erythrocytic stage, 72 h; read-out: EC50 (μM) for P. falciparum strain K1 in RBC", "protocol": "Maintenance in continuous culture was done as described previously by Trager and Jensen ([46]). Cultures were maintained in fresh A+ human erythrocytes (EFS [French Blood Bank]) at 2.5% hematocrit in complete medium (RPMI 1640 with 25 mM HEPES, 25 mM NaHCO3, 10% A+ human serum) at 37°C under a reduced-O2 atmosphere (gas mixture of 10% O2, 5% CO2, and 85% N2). Parasitemia was maintained daily between 1% and 3%. The P. falciparum drug susceptibility test was carried out by comparing quantities of DNA in treated and control cultures of parasites in human erythrocytes according to a SYBR green I fluorescence-based method ([50]) using a 96-well fluorescence plate reader. Compounds, previously dissolved in DMSO (final concentration, less than 0.5% vol/vol), were incubated in a total assay volume of 200 μl of synchronized culture suspension (2% hematocrit and 0.4% parasitemia) for 72 h in a humidified atmosphere (85% N2, 10% O2, and 5% CO2) at 37°C in 96-well flat-bottom plates. Duplicate assays were performed for each sample. After incubation, plates were frozen at −20°C for 24 h. Then, the frozen plates were thawed for 1 h at 37°C. Fifteen microliters of each sample was transferred to 96-well flat-bottom black plates (Greiner Bio-one) already containing 15 μl of the SYBR green I lysis buffer (2× SYBR green I, 20 mM Tris base, pH 7.5, 20 mM EDTA, 0.008% [wt/vol] saponin, 0.08% [wt/vol] Triton X-100). […] Plates were incubated for 15 min at 37°C and then read on a Tecan Infinite F-200 spectrophotometer with excitation and emission wavelengths at 485 and 535 nm, respectively. […] EC50K1 values represent the mean values calculated from three independent experiments."}, "[2]": {"test_system": "P. falciparum mature gametocytes (stage V)", "assay": "Exflagellation-blocking assay", "assay_type": "cell-based, Plasmodium falciparum", "conditions": "10 μM, 24 h preincubation of stage V gametocytes", "protocol": "Exflagellation-blocking assays were performed according to published protocols ([48], [49]). Assays were performed using gametocyte cultures providing high-enough numbers of exflagellation centers for meaningful measurement (>30 centers of exflagellation in 50 microscope fields at 400× magnification). […] The 6-well plate was incubated at 37°C. After treatment with M1 during 2 h or 24 h, exflagellation was induced by decreasing the temperature to 25°C and replacing culture medium with AB serum. The numbers of exflagellation centers were recorded between 10 and 30 min after induction and compared to the numbers in the control (DMSO treatment). Activity was expressed as the percentage of exflagellation inhibition compared to the control."}, "[3]": {"test_system": "P. yoelii (GFP-luc strain)", "assay": "In vivo liver-stage assay in mice infected with P. yoelii sporozoites", "parameters": "species or system BALB/c mice", "protocol": "Five mice per treatment group were used. Experimental groups were treated with 50 and 100 mg/kg of M1 intraperitoneally (i.p.). Untreated infected mice and noninfected mice (infection controls), as well as primaquine-treated (50 mg/kg) mice (control drug), were also included. The drugs were administered on days −1, 0, and +1, and mice were challenged on day zero by retroorbital injection of P. yoelii (GFP-luc strain) sporozoites (10,000 per mouse). In vivo bioluminescence imaging was performed 44 h postinfection on day 2, to assess liver-stage development. When parasites were detected in the liver, treatment was continued until day 5 and in vivo imaging was performed on days 3 and 6, to evaluate a prepatent period for the blood-stage parasites in mice after the sporozoite inoculation. In vivo imaging and blood smears were performed to monitor blood-stage development using methods described previously ([45]). This experiment was performed twice.\nIVIS Spectrum (Caliper Life Science, Hanover, MD) was used to capture bioluminescence signals. Prior to analysis, the mice were injected i.p. with D-luciferin (100 mg/kg), anesthetized with isoflurane, and imaged 10 min postinjection. Images were analyzed using the Living Image 3.0 software (Caliper Life Sciences, Hanover, MD).\nIn order to study the in vivo efficacy of M1 without any hepatic CYP metabolism, we conducted an experiment using 1-aminobenzotriazole (ABT), a nonselective inhibitor of cytochrome P450 enzymes ([34], [35]). ABT was administered to mice i.p. 1 h before each treatment with 50 mg/kg gamhepathiopine for 3 days starting from the day before sporozoite inoculation."}}}
{"smiles": "Cc1ccc(-c2cc3nc(NC(C)(C)C)[nH]c(=O)c3s2)cc1", "note": "[Metabolite M1, 2-(tert-Butylamino)-6-(p-tolyl)thieno[3,2-d]pyrimidin-4(3H)-one]", "values": [{"measurement": "half-life", "setting": "Microsomal stability", "value": 11, "unit": "min"}, {"measurement": "EC50", "setting": "[1]", "value": 0.045, "unit": "µM"}, {"measurement": "mean percentage for male exflagellation", "setting": "[2]", "value": 7.5, "unit": "%"}, {"measurement": "development of liver-stage parasites in vivo at day 2", "setting": "[3]; 50 mg/kg i.p., 44 h postinfection, bioluminescence", "value": "did not prevent the development of liver-stage parasites"}, {"measurement": "blood-stage parasitemia after sporozoite infection", "setting": "[3]; 50 mg/kg, blood smears days 3 and 6", "value": "reduced the burden of blood-stage parasites"}, {"measurement": "in vivo activity against the hepatic stages with ABT cotreatment", "setting": "[3]; M1 50 mg/kg with 1-aminobenzotriazole 50 mg/kg i.p.", "value": "improved"}]}
